Data as given in ChEMBL document CHEMBL1150710, “Cytotoxic steroids of Gelsemium sempervirens” (1987).
Converted amounts (≈) assume the structure as drawn. The source made the active and inactive calls. The rule behind the calls is not given here.

What was measured:
P388 = assay: Cytotoxicity against mouse P388 cells; type: functional; details: for EC50: read-out: ED50 (the source's name)
KB = assay: Cytotoxicity against human KB cells; type: functional; details: for EC50: read-out: ED50 (the source's name)

| Compound | EC50 (P388) [µg/mL] | EC50 (KB) [µg/mL] | ED50 (P388) | ED50 (KB) |
| --- | --- | --- | --- | --- |
| CC(=O)C1=CC[C@H]2[C@@H]3CC[C@H]4CC(=O)CC[C@]4(C)[C@H]3C[C@@H](O)[C@]12C | 0.9 (≈ 2.72 µM) | 0.7 (≈ 2.12 µM) | – | – |
| CC[C@H]1N[C@H]2C[C@@]3(C(=O)N(OC)c4ccccc43)[C@@H]3OC[C@H]2[C@H]1[C@@H]3O | – | – | inactive | inactive |
| C/C=C1\CN2[C@H]3C[C@H]1[C@H](CO)[C@@H]2Cc1c3[nH]c2ccccc12 | – | – | inactive | inactive |
| C=C[C@]12CN(C)[C@@H]3[C@H]4CO[C@H](C[C@H]41)[C@]1(C(=O)N(OC)c4ccccc41)[C@@H]32 | – | – | inactive | inactive |
| C=C[C@]12C(=O)N(C)[C@@H]3[C@H]4CO[C@H](C[C@H]41)[C@]1(C(=O)Nc4ccccc41)[C@@H]32 | – | – | inactive | inactive |
| C=C[C@]12CN(C)[C@@H]3[C@H]4CO[C@H](C[C@H]41)[C@]1(C(=O)Nc4ccccc41)[C@@H]32 | – | – | inactive | inactive |
| CCC1=N[C@H]2C[C@@]3(C(=O)N(OC)c4ccccc43)[C@@H]3OC[C@H]2[C@H]1[C@@H]3O | – | – | inactive | inactive |
| CC[C@H]1N[C@H]2C[C@@]3(C(=O)N(OC)c4ccccc43)[C@H]3C[C@@H]1[C@@H]2CO3 | – | – | inactive | inactive |
| CC(=O)C1=CC[C@H]2[C@@H]3CCC4=CC(=O)CC[C@]4(C)[C@H]3C[C@@H](O)[C@]12C | 2.8 (≈ 8.52 µM) | 2 (≈ 6.09 µM) | – | – |
| CCC1=N[C@H]2C[C@@]3(C(=O)N(OC)c4ccccc43)[C@H]3C[C@@H]1[C@@H]2CO3 | – | – | inactive | inactive |
| C/C=C1\CN(C)[C@H]2C[C@@]3(C(=O)N(OC)c4ccccc43)[C@H]3C[C@@H]1[C@@H]2CO3 | – | – | inactive | inactive |
| COc1cc2ccc(=O)oc2cc1O | – | – | inactive | inactive |
| C[C@H]1[C@H](C)CC[C@]2(C(=O)O)CC[C@]3(C)C(=CC[C@@H]4[C@@]5(C)CC[C@H](O)C(C)(C)[C@@H]5CC[C@]43C)[C@H]12 | – | – | inactive | inactive |
